{
  "source": "patent US11918565B1",
  "about": "“Treatment of post-operative pain via sciatic nerve block with sustained-release liposomal anesthetic compositions” (Pacira Pharmaceuticals, Inc., priority 2022, dated 2024)",
  "key": {"[1]": {"test_system": "subjects undergoing bunionectomy (postsurgical pain, operative foot)", "assay": "NRS pain intensity scores after sciatic (popliteal fossa) nerve block, Phase 3 clinical trial #1", "type": "in vivo, human", "protocol": "Clinical Study #1 was a Phase 3, multicenter, randomized, double-blind, active-controlled study in 180 subjects undergoing bunionectomy. Subjects received a sciatic (in the popliteal fossa) nerve block with a single dose of either […] 266 mg ([…] 133 mg (EXP133), or 0.25% bupivacaine HCl (50 mg; BUP50). The study was conducted in two parts (Part A and Part B). Part A was to be completed and analyzed before enrollment in Part B was initiated. Part A was a 3-arm cohort with 66 subjects undergoing bunionectomy to obtain information on pharmacokinetics (PK), pharmacodynamics (PD), efficacy, and safety. Subjects were randomized (1:1:1) to the EXP266, EXP133, and BUP50 treatment arms. Part B was a 2-arm cohort with 119 subjects undergoing bunionectomy to evaluate the efficacy and safety of […] compared with bupivacaine HCl. The dose of the […] arm in Part B was determined based on the interim analysis of the Part A cohort results. […] An unscheduled pain intensity assessment using the NRS (measured as “On a scale from 0 to 10, where 0 equals no pain and 10 equals the worst possible pain, how much pain are you experiencing in your operative foot right now?”) was to be completed immediately prior to administration of any breakthrough pain medication up to 96 h post-surgery. Medications were administered PRN; opioids were not to be given on a pre-determined schedule. […] All postsurgical analgesics administered, were to be recorded through hospital discharge. […]"}, "[2]": {"test_system": "sciatic nerve (sensory block) in subjects undergoing bunionectomy", "assay": "Pharmacodynamics: onset and duration of sensory block, clinical trial #1 Part A", "type": "in vivo, human", "protocol": "Clinical Study #1 was a Phase 3, multicenter, randomized, double-blind, active-controlled study in 180 subjects undergoing bunionectomy. Subjects received a sciatic (in the popliteal fossa) nerve block with a single dose of either EXPAREL 266 mg (EXP266), EXPAREL 133 mg (EXP133), or 0.25% bupivacaine HCl (50 mg; BUP50). The study was conducted in two parts (Part A and Part B). Part A was to be completed and analyzed before enrollment in Part B was initiated. Part A was a 3-arm cohort with 66 subjects undergoing bunionectomy to obtain information on pharmacokinetics (PK), pharmacodynamics (PD), efficacy, and safety. Subjects were randomized (1:1:1) to the EXP266, EXP133, and BUP50 treatment arms. Part B was a 2-arm cohort with 119 subjects undergoing bunionectomy to evaluate the efficacy and safety of EXPAREL compared with bupivacaine HCl. The dose of the EXPAREL arm in Part B was determined based on the interim analysis of the Part A cohort results.\nOn the day of surgery, subjects received an ultrasound-guided sciatic (in the popliteal fossa) nerve block with one of the following treatments: • EXP266 arm: subjects randomized to this treatment arm received 20 mL (266 mg) EXPAREL mixed with 10 mL saline (Part A only; per interim analysis was not selected for Part B) • EXP133 arm: subjects randomized to this treatment arm received 10 mL (133 mg) EXPAREL mixed with 20 mL saline (Part A and B) • BUP50 arm: subjects randomized to this treatment arm received 20 mL (50 mg) 0.25% bupivacaine HCl mixed with 10 mL saline (Part A and B)\nEfficacy assessments included pain intensity scores focused on the operative foot using the Numeric Rating Scale (NRS), total postsurgical opioid consumption in OMED, time to first opioid consumption post-surgery, and percentage of opioid-free patients through 96 hours, and worst and average NRS pain intensity scores at 24 h, 48 h, 72 h, and 96 h from end of surgery. Additionally, blood samples for pharmacokinetic (PK) analysis (area under the curve [AUC], maximum plasma concentration [Cmax], time of maximum plasma concentration [Tmax], including early and late Cmax and Tmax (EXP133-ADMIX arm only), apparent terminal elimination half-life [t1/2el], apparent clearance [CL/F], and apparent volume of distribution [Vd/F]). Pharmacodynamic (PD) assessment data, including median time to onset of sensory block and motor block, and median duration of sensory and motor block were collected.\nPharmacodynamic endpoints included: onset of sensory block, offset of sensory block, duration of sensory block, onset of motor block, offset of motor block, and duration of motor block."}, "[3]": {"settings": "EXP266 Part A, EXP133 and BUP50 Part A+B"}},
  "note": "Counter-ions that a name gives are not always drawn.",
  "data": [
    {"compound": "CCCCN1CCCCC1C(=O)Nc1c(C)cccc1C", "note": "(stereo not drawn) [BUP50, bupivacaine HCl]", "values": [
      {"measurement": "mean AUC of average pain over the last 24 h post-surgery from POD1 through POD4", "setting": "[1]; [3]", "value": 16.1},
      {"measurement": "mean AUC of worst pain over the last 24 h post-surgery from POD1 through POD4", "setting": "[1]; [3]", "value": 25.2},
      {"measurement": "time post-surgery at which mean current pain intensity peaked", "setting": "[1]; post-surgery", "value": 36, "unit": "h"},
      {"measurement": "subjects without sensation at the first time point with ≥50%", "setting": "[2]; 30 min post-dose for BUP50, 2 h for EXP266 and EXP133", "value": 59.1, "unit": "%"},
      {"measurement": "subjects who still did not have complete sensation", "setting": "[2]; 60 h post-dose", "value": "all BUP50 subjects had regained sensation"},
      {"measurement": "median duration of sensory block", "setting": "[2]; human, in vivo", "value": 29.10, "unit": "h"},
      {"measurement": "median time to sensory block", "setting": "[2]; human, in vivo", "value": 0.46, "unit": "h"},
      {"measurement": "subjects with sensory block onset observed", "setting": "[2]; human, in vivo", "value": 63.6, "unit": "%"},
      {"measurement": "first time point at which sensation was not present in ≥50% of subjects", "setting": "[2]; post-dose", "value": 30, "unit": "min"}
    ]}
  ]
}
